Test results: US7718671B2, “Substituted arylthiourea derivatives useful as inhibitors of viral replication” (Achillion Pharmaceuticals, Inc., priority 2003, dated 2010)

Tested on: Hepatitis C replicon
Assay: HCV replicon assay (NPT level by captured ELISA in replicon-containing cells)
Format: cell-based
Details: Hepatitis C virus, 72 h; Huh-7 HCV replicon-containing cells, three days incubation
Procedure: The compounds claimed herein were tested for the ability to inhibit viral replication of the Hepatitis C replicon in cultured cells in which the HCV replicon construct has been incorporated. The HCV replicon system was described by Bartenschlager, et. al (Science, 285, pp. 110-113 (1999)). The replicon system is predictive of in vivo anti-HCV activity; compounds that are active in humans uniformly evidence activity in the replicon assay.
HCV replicon-containing cells are treated with different concentrations of interferon alpha, a known inhibitor of HCV replication, as a positive control and with different concentrations of the test compound. The replicon assay system includes Neomycin Phosphotransferase (NPT) as a component of the replicon itself in order to detect the transcription of replicon gene products in the host cell. Cells in which the HCV is actively replicating have high levels of NPT; the level of NPT is proportional to HCV replication. […] The NPT level of each sample is measured using a captured ELISA.
A protocol for testing compounds for the ability to inhibit viral replication of the Hepatitis C replicon cultured cells in which the replicon construct has been incorporated, follows.
9A. HCV Replicon and Replicon Expression
The HCV genome consists of a single ORF that encodes a 3000 amino acid polyprotein. The ORF is flanked on the 5′ side by an untranslated region that serves as an internal ribosome entry site (IRES) and at the 3′ side by a highly conserved sequence necessary for viral replication (3′-NTR). The structural proteins, necessary for viral infection, are located near the 5′ end of the ORF. The non-structural proteins, designated NS2 to NS5B comprise the remainder of the ORF.
The HCV replicon contains, 5′-3′, the HCV-IRES, the neomycin phosphotransferase (neo) gene, the IRES of encephalomyocarditis virus, which directs translation of HCV sequences NS3 to NS5B, and the 3′-NTR. The sequence of the HCV replicon has been deposited in GenBank (Accession no. AJ242652).
The replicon is transfected into Huh-7 cells using standard methods such as electroporation.
The equipment and materials include, but are not limited to, Huh-7 HCV replicon-containing cells, maintenance media (DMEM (Dulbecco's modified Eagle media) supplemented with 10% FBS, L-glutamine, non-essential amino acids, penicillin (100 units/ml), streptomycin (100 micrograms/ml), and 500 micrograms/ml of Geneticin G418), screening media (DMEM supplemented with 10% FBS, L-glutamine, and non-essential amino acid, penicillin (100 units/ml) and streptomycin (100 micrograms/ml)), 96 well tissue culture plates (flat bottom), 96 well plates (U bottom for drug dilution), Interferon alpha for positive control, fixation reagent (such as methanol: acetone), primary antibody (rabbit anti-NPTII), secondary antibody: Eu—N1l, and enhancement solution.
HCV replicon-containing cells support high levels of viral RNA replicon replication when their density is suitable. Over confluency will cause a decrease of viral RNA replication. Therefore, cells must be kept growing in log phase in the presence of 500 micrograms/ml of G418. Generally, cells should be passed twice a week at 1: 4-6 dilution. Cell maintenance is conducted as follows:
HCV replicon-containing cells are examined under a microscope to ensure that cells growing well. Cells are rinsed once with PBS and 2 ml trypsin is added. The cell/trypsin mixture is incubated at 37° C. in a CO2 incubator for 3-5 minutes. After incubation 10 ml of complete media is added to stop the trypsinization reaction. Cells are blown gently, put into a 15 ml tube, and spun at 1200 rpm for 4 minutes. The trypsin/medium solution is removed. Medium (5 ml) is added and the cells are mixed carefully. The cells are counted.
The cells are then seeded onto 96-well plates at a density of 6000-7500 cells/100 ul/well (6-7.5×10^5 cells/10 ml/plate). The plates are then incubated at 37° C. in a 5% CO2 incubator. […]

NC(=S)Nc1cccc(Oc2ccccc2)c1 [Compound 3, 1-(3-Phenoxy-phenyl)-thiourea]
EC50: < 1 µM

NC(=S)Nc1cccc(Cc2ccccc2)c1 [Compound 5, 1-(3-Benzyl-phenyl)-thiourea]
EC50: < 1 µM

CCCCCOc1ccc(NC(N)=S)cc1 [Compound 6, 1-(4-Pentyloxy-phenyl)-thiourea]
EC50: < 1 µM

CCCCCc1ccc(NC(N)=S)cc1 [Compound 7, 1-(4-Pentyl-phenyl)-thiourea]
EC50: < 1 µM

CCCCCOc1ccc(NC(N)=S)cc1F [Compound 12, 1-(3-Fluoro-(4-Pentyloxy)-phenyl)-thiourea]
EC50: < 1 µM

NC(=S)Nc1cccc(OC2Cc3ccccc3C2)c1 [Compound 13, 1-(3-(indan-2-yloxy)phenyl)thiourea]
EC50: < 1 µM

NC(=S)Nc1cccc(OCc2ccc(F)c(F)c2)c1 [Compound 14, 1-(3-(3,4-difluorobenzyloxy)phenyl)thiourea]
EC50: < 1 µM

NC(=S)Nc1cccc(OCc2ccc(-c3ccccc3)cc2)c1 [Compound 15, 1-(3-(4-phenylbenzyloxy)phenyl)thiourea]
EC50: < 1 µM

C[C@H](Oc1cccc(NC(N)=S)c1)c1ccccc1 [Compound 16, 1-(3-((S)-1-phenylethoxy)phenyl)thiourea]
EC50: < 1 µM

NC(=S)Nc1ccc2c(c1)OC(c1ccccc1)O2 (stereo not drawn) [Compound 19, 1-(2-phenylbenzo[d]-[1,3]dioxol-6-yl)thiourea]
EC50: < 1 µM

C[C@@H](Oc1cccc(NC(N)=S)c1)c1ccccc1 [Compound 20, 1-(3-((R)-1-phenylethoxy)phenyl)thiourea]
EC50: < 1 µM

NC(=S)Nc1cccc(OCCc2ccccc2)c1 [Compound 21, 1-(3-(phenethyloxy)phenyl)thiourea]
EC50: < 1 µM

NC(=S)Nc1cccc(-c2ccccc2)c1 [Compound 22, 1-(3-(phenyl)phenyl)thiourea]
EC50: < 1 µM

NC(=S)Nc1ccc(-c2ccccc2)cc1 [Compound 23, 1-(4-(phenyl)phenyl)thiourea]
EC50: < 1 µM

NC(=S)Nc1ccc(N2CCc3ccccc3C2)c(F)c1 [Compound 24, 1-(3-fluoro-4-(3,4-dihydro-isoquinolin-2(1H)-yl)phenyl)thiourea]
EC50: < 1 µM

NC(=S)Nc1ccc(N2CCc3ccccc3C2)cc1 [Compound 25, 1-(4-(3,4-dihydro-isoquinolin-2(1H)-yl)phenyl)thiourea]
EC50: < 1 µM

NC(=S)Nc1ccc(N2CCC3CCCCC3C2)cc1 (stereo not drawn) [Compound 26, 1-(4-(octahydroisoquinolin-2(1H)-yl)phenyl)thiourea]
EC50: < 1 µM

NC(=S)Nc1ccc(OCc2ccccc2)cc1 [Compound 28, 1-(4-(benzyloxy)phenyl)thiourea]
EC50: < 1 µM

CCCCCC[C@H]1CC[C@H](c2ccc(NC(N)=S)cc2)CC1 [Compound 29, 1-(4-((1s,4r)-4-hexylcyclohexyl)phenyl)thiourea]
EC50: < 1 µM

CCCCCCC12CCC(c3ccc(NC(N)=S)cc3)(CC1)CC2 [Compound 30, 1-(4-(4-hexylbicyclo[2.2.2]octan-1-yl)phenyl)thiourea]
EC50: < 1 µM

CCC[C@H]1CC[C@H](c2ccc(NC(N)=S)cc2)CC1 [Compound 31, 1-(4-((1s,4r)-4-propylcyclohexyl)phenyl)thiourea]
EC50: < 1 µM

NC(=S)Nc1ccc(N2CCCCC2)c(C(F)(F)F)c1 [Compound 32, 1-(3-(trifluoromethyl)-4-(piperidin-1-yl)phenyl)thiourea]
EC50: < 1 µM

CCCCC#Cc1ccc(NC(N)=S)cc1 [Compound 33, 1-(4-(hex-1-ynyl)phenyl)thiourea]
EC50: < 1 µM

COc1cccc(Cc2cccc(NC(N)=S)c2)c1 [Compound 35, 1-(3-(3-methoxybenzyl)phenyl) thiourea]
EC50: < 1 µM

CCCCCCCOc1ccc(NC(N)=S)cc1C(F)(F)F [Compound 39, 1-(4-(heptyloxy)-3-(trifluoromethyl)phenyl)thiourea]
EC50: < 1 µM

Cc1cc(NC(N)=S)ccc1N1CCCCC1 [Compound 51, 1-(3-(methyl)-4-(piperidin-1-yl)phenyl)thiourea]
EC50: < 1 µM

NC(=S)Nc1cccc(NCC2CCCCC2)c1 [Compound 52, 1-(3-(cyclohexylmethylamino)phenyl)thiourea]
EC50: < 1 µM

NC(=S)Nc1cccc(OCc2cccc(C(F)(F)F)c2)c1 [Compound 53, 1-(3-(3-(trifluoromethyl)benzyloxy)phenyl)thiourea]
EC50: < 1 µM

NC(=S)Nc1ccc(N2CCC(c3ccccc3)CC2)c(F)c1 [Compound 54, 1-(3-fluoro-4-(4-phenylpiperidin-1-yl)phenyl)thiourea]
EC50: < 1 µM

NC(=S)NCc1ccc(Oc2ccccc2)cc1 [Compound 55, 1-(4-phenoxybenzyl)thiourea]
EC50: < 1 µM

NC(=S)NCc1cccc(-c2ccccc2)c1 [Compound 56, 1-(3-phenylbenzyl)thiourea]
EC50: < 1 µM

NC(=S)NCc1ccc(-c2ccccc2)cc1 [Compound 57, 1-(4-phenylbenzyl)thiourea]
EC50: < 1 µM

CCCCc1ccc(CNC(N)=S)cc1 [Compound 59, 1-(4-butylbenzyl)thiourea]
EC50: < 1 µM
